Literature values as cited in US6642211B2 (Wisconsin Alumni Research Foundation, priority 2001, dated 2003).

Experiments:
[1] = test system: high grade gliomas and malignant melanoma
[2] = test system: human tumor xenografts, including malignant glioma; details: wide variety of human tumor xenografts
[3] = test system: recurrent malignant glioma
[4] = prolonged infusions of up to 30 days, patients with leukemia

Row | effect on pharmacokinetics or protein binding of carboplatin ([3]; thymidine-carboplatin interaction) | SMILES | dose-limiting toxicity ([1]; human, in vivo) | clinical efficacy ([1]; treatment of high grade gliomas and malignant melanoma) | cell killing in vitro (neoplastic cells) | tumor regression [2] | anti-cancer activity (leukemia; [4]) | myelotoxicity (leukemia; [4]) | efficacy (leukemia; shorter infusions of high dose thymidine) | protection against carboplatin myelotoxicity ([3]; Phase I)
1 |  | Cn1nnc2c(C(N)=O)ncn2c1=O [Temozolamide] | related to myelosuppression | demonstrated clinical efficacy |  |  |  |  |  | 
2 | not to affect | Cc1cn([C@H]2C[C@H](O)[C@@H](CO)O2)c(=O)[nH]c1=O [Thymidine] |  |  | preferentially kills neoplastic cells | induces partial regression | anti-cancer activity | significant myelotoxicity | effective | protect against dose-limiting carboplatin myelotoxicity
